What all share (type): cell-based
Assay [1] addresses T1, N-type calcium channels (α1B+α2δ+β1b cDNA subunits) (Rattus norvegicus, UniProt Q02294).
T1 construct: expressed in transfected cells
Description: Whole cell patch clamp, tonic and frequency dependent block, N-type channels in HEK 293 (Example 5). As to conditions: for % Block (100 nM) 0.03 Hz: 0.03 Hz (tonic block); for % Block (100 nM) 0.2 Hz: 0.2 Hz (frequency dependent block). The protocol: (§1) N-type calcium channel blocking activity was assayed in human embryonic kidney cells, HEK 293, stably transfected with the rat brain N-type calcium channel subunits (α1B+α2δ+β1b cDNA subunits). Alternatively, N-type calcium channels (α1B+α2δ+β1b cDNA subunits), L-type channels (α1C+α2δ+β1b cDNA subunits) and P/Q-type channels (α1A+α2δ+β1b cDNA subunits) were transiently expressed in HEK 293 cells. Briefly, cells were cultured in Dulbecco's modified eagle medium (DMEM) supplemented with 10% fetal bovine serum, 200 U/ml penicillin and 0.2 mg/ml streptomycin at 37° C. with 5% CO2. At 85% confluency cells were split with 0.25% trypsin/1 mM EDTA and plated at 10% confluency on glass coverslips. At 12 hours the medium was replaced and the cells transiently transfected using a standard calcium phosphate protocol and the appropriate calcium channel cDNAs. Fresh DMEM was supplied and the cells transferred to 28° C./5% CO2. Cells were incubated for 1 to 2 days to whole cell recording.
(§2) Whole cell patch clamp experiments were performed using an Axopatch 200B amplifier (Axon Instruments, Burlingame, Calif.) linked to a personal computer equipped with pCLAMP software. The external and internal recording solutions contained, respectively, 5 mM BaCl2, 1 mM MgCl2, 10 mM HEPES, 40 mM TEACl, 10 mM glucose, 87.5 mM CsCl (pH 7.2) and 108 mM CsMS, 4 mM MgCl2, 9 mM EGTA, 9 mM HEPES (pH 7.2). Currents were typically elicited from a holding potential of −80 mV to +10 mV using Clampex software (Axon Instruments). Typically, currents were first elicited with low frequency stimulation (0.03 Hz) and allowed to stabilize prior to application of the compounds. The compounds were then applied during the low frequency pulse trains for two to three minutes to assess tonic block, and subsequently the pulse frequency was increased to 0.2 Hz to assess frequency dependent block. Data were analyzed using Clampfit (Axon Instruments) and SigmaPlot 4.0 (Jandel Scientific).

Assay [2] has as its target P/Q-type channels (α1A+α2δ+β1b cDNA subunits) (UniProt P54282). Description: Whole cell patch clamp, tonic and frequency dependent block, P/Q-type channels in HEK 293 (Example 5). How it is done:
as §1, §2
(§3) Tables 2 and 3 show the results of similar experiments conducted with P/Q-type and L-type channels expressed in HEK 293 cells.

Assay [3] has as its target T2, L-type channels (α1C+α2δ+β1b cDNA subunits) (UniProt P22002).
T2 construct: other: α1C (L-type), 100 nM, 0.03 Hz; other: α1C (L-type), 100 nM, 0.2 Hz; other: α1C (L-type), 0.03 Hz; other: α1C (L-type), 0.2 Hz
Description: Whole cell patch clamp, tonic and frequency dependent block, L-type channels in HEK 293 (Example 5). How it is done: as §1, §2, §3
In general terms: The patch-clamp technique gives a direct electrical read-out from membranes.

The target of assay [4] is T3, rat α1B+α2b+β1b channels (N-type channels) (Rattus norvegicus, UniProt Q02294).
T3 construct: expressed in transfected cells
Kind of assay: Whole cell patch recordings, N-type calcium channel block (Examples 1 and 4). The conditions noted are these: block of N-type calcium channels, HEK cells, 5 mM barium as charge carrier. The protocol: Antagonist activity was measured using whole cell patch recordings on human embryonic kidney cells either stably or transiently expressing rat α1B+α2b+β1b channels (N-type channels) with 5 mM barium as a charge carrier.
For transient expression, host cells, such as human embryonic kidney cells, HEK 293 (ATCC# CRL 1573) were grown in standard DMEM medium supplemented with 2 mM glutamine and 10% fetal bovine serum. HEK 293 cells were transfected by a standard calcium-phosphate-DNA coprecipitation method using the rat α1B+β1b+α2δ N-type calcium channel subunits in a vertebrate expression vector (for example, see Current Protocols in Molecular Biologyl ).
After an incubation period of from 24 to 72 hrs the culture medium was removed and replaced with external recording solution (see below). Whole cell patch clamp experiments were performed using an Axopatch 200B amplifier (Axon Instruments, Burlingame, Calif.) linked to an IBM compatible personal computer equipped with pCLAMP software. Borosilicate glass patch pipettes (Sutter Instrument Co., Novato, Calif.) were polished (Microforge, Narishige, Japan) to a resistance of about 4 MΩ when filled with cesium methanesulfonate internal solution (composition in MM: 109 CsCH3SO4, 4 MgCl2, 9 EGTA, 9 HEPES, pH 7.2). Cells were bathed in 5 mM Ba^++ (in mM: 5 BaCl2, 1 MgCl2, 10 HEPES, 40 tetraethylammonium chloride, 10 glucose, 87.5 CsCl pH 7.2). Current data shown were elicited by a train of 100 ms test pulses at 0.066 Hz from −100 mV and/or −80 mV to various potentials (min. −20 mV, max. +30 mV). Drugs were perfused directly into the vicinity of the cells using a microperfusion system.
Normalized dose-response curves were fit (Sigmaplot 4.0, SPSS Inc., Chicago, Ill.) by the Hill equation to determine IC50 values. Steady-state inactivation curves were plotted as the normalized test pulse amplitude following 5 s inactivating prepulses at +10 mV increments. Inactivation curves were fit (Sigmaplot 4.0) with the Boltzman equation, Ipeak (normalized)=1/(1+exp((V−Vh)z/25.6)), where V and Vh are the conditioning and half inactivation potentials, respectively, and z is the slope factor.

Setting [5] is: Table 4 summary, 0.2 Hz, N-type, unit not given in Table 4 (μM in Table 1), read-out: N (IC50 values).
Setting [6] is: α1B (N-type), 0.03 Hz, read-out: Estimated IC50 (μM) 0.03 Hz.
Setting [7] is: α1B (N-type), 0.2 Hz, read-out: Estimated IC50 (μM) 0.2 Hz.
[8] abbreviates: Table 4 summary, 0.2 Hz, P/Q-type, unit not given in Table 4 (μM in Table 2), read-out: P/Q (IC50 values).
The mark [9] stands for this setting: α1A (P/Q-type), 0.03 Hz, read-out: Estimated IC50 (μM) 0.03 Hz.
Setting [10] is: α1A (P/Q-type), 0.2 Hz, read-out: Estimated IC50 (μM) 0.2 Hz.
Setting [11] is: Table 4 summary, 0.2 Hz, L-type, unit not given in Table 4 (μM in Table 3), read-out: L (IC50 values).
Setting [12] is: α1C (L-type), 0.03 Hz, read-out: Estimated IC50 (μM) 0.03 Hz.
Setting [13] is: α1C (L-type), 0.2 Hz, read-out: Estimated IC50 (μM) 0.2 Hz.

Where two headings read alike, the source gives them in different places.

Results on seven compounds are retold here after patent publication US7064128B2, “Preferentially substituted calcium channel blockers” (NeuroMed Technologies, Inc., priority 1998, dated 2006).

T1 sequence (Q02294 whole entry): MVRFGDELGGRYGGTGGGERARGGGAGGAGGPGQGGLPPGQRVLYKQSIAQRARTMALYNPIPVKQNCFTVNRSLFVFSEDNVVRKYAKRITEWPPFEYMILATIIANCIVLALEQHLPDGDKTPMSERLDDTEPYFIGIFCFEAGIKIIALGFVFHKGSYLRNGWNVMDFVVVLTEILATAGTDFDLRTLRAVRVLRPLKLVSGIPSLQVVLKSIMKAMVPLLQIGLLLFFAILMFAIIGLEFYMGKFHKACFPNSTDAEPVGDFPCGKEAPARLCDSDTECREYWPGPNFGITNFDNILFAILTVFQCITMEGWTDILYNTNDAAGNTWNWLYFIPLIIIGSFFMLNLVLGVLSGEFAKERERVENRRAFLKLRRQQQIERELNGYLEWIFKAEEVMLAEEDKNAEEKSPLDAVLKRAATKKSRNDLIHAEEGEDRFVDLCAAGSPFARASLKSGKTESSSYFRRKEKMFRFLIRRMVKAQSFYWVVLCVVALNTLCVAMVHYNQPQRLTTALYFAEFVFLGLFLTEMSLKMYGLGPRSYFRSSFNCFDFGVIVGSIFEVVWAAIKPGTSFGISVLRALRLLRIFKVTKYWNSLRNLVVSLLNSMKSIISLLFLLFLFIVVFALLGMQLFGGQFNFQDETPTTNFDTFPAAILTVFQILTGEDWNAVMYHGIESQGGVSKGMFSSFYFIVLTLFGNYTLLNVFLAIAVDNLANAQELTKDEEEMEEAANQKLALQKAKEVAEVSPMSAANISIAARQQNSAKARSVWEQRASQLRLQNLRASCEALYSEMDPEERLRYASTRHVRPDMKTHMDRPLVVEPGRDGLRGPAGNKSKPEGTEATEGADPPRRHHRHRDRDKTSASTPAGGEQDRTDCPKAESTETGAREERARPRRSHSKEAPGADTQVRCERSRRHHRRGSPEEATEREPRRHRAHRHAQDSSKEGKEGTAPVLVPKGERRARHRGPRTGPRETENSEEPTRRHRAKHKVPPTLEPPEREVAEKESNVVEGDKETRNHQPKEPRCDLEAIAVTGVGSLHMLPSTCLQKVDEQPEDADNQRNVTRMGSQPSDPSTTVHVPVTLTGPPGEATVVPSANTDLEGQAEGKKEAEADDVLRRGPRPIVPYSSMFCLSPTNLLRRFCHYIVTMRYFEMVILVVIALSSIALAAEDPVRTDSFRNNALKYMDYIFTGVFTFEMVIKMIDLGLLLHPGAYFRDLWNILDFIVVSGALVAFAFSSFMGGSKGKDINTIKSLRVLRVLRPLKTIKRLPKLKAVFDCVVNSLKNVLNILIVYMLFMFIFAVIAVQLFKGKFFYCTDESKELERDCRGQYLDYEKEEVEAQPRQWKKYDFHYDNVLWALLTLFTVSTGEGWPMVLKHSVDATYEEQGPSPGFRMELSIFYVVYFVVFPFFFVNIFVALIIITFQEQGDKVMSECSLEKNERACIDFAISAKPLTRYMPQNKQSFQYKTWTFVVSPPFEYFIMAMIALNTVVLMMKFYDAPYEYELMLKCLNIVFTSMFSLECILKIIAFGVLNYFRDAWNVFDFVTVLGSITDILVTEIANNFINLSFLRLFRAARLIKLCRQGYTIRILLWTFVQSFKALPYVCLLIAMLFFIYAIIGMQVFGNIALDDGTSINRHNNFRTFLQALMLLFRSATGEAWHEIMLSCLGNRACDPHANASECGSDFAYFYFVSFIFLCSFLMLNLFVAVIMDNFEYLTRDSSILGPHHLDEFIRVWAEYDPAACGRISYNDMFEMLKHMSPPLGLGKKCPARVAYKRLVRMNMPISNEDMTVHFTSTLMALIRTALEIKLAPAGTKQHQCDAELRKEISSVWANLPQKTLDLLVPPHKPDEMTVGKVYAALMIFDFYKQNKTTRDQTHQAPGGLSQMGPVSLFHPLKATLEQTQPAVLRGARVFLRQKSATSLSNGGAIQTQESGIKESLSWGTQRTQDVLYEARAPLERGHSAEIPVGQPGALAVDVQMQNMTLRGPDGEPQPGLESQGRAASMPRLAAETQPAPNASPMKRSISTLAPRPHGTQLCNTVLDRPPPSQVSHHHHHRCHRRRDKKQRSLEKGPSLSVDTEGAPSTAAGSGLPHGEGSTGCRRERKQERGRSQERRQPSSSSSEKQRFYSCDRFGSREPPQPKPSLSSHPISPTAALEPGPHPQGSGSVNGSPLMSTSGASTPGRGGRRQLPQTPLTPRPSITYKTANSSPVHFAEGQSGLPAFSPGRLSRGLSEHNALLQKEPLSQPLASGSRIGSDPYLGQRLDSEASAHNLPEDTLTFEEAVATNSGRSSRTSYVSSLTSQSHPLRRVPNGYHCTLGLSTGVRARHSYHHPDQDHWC
T1 sequence (P54290 25-944 partner limits assumed): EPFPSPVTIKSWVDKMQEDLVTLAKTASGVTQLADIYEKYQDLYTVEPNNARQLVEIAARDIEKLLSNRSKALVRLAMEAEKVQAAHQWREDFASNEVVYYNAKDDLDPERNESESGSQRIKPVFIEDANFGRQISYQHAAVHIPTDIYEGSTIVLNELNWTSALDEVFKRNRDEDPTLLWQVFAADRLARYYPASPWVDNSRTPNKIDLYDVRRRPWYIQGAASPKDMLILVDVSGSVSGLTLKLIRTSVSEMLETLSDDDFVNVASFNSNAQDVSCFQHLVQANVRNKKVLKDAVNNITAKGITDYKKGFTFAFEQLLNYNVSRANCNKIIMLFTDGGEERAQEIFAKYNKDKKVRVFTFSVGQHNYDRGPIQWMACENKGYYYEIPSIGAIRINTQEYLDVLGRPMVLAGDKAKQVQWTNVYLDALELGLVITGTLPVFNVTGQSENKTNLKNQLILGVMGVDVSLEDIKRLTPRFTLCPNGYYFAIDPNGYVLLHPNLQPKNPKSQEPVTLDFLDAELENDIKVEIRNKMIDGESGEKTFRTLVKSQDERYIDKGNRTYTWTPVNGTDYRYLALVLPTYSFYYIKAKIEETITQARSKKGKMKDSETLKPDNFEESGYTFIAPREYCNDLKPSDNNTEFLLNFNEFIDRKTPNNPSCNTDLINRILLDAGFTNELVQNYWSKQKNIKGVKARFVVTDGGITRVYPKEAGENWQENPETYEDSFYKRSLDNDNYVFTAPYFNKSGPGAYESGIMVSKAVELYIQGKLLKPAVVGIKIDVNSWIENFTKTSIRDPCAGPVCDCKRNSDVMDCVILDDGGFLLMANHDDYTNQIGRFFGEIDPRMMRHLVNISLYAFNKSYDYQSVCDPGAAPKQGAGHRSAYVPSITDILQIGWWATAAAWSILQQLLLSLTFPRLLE
T1 sequence (P54290 945-1091 partner limits assumed): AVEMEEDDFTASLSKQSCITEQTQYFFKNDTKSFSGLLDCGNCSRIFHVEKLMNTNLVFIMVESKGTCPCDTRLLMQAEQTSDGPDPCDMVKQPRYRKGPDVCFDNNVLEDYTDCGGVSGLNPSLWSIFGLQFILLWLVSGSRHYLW
T1 sequence (P54283 whole entry partner): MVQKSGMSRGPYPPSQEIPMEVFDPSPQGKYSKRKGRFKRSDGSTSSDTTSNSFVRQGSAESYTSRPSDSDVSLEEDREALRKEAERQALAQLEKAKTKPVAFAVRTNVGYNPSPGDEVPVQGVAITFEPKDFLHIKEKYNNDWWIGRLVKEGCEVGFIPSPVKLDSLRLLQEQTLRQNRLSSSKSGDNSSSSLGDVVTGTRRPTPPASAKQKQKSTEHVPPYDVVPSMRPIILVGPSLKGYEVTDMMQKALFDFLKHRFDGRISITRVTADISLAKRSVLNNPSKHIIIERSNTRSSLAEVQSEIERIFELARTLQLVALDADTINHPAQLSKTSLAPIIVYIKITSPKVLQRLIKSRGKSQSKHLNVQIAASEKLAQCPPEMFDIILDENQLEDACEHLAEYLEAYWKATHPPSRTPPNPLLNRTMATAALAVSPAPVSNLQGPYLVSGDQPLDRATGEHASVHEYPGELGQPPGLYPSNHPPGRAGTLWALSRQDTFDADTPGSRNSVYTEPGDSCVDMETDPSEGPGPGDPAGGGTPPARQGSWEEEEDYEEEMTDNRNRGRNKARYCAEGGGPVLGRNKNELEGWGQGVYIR
T3 sequence (Q02294 whole entry): as the sequence (Q02294 whole entry) above
T3 sequence (P54290 25-944 partner limits assumed): as the sequence (P54290 25-944 partner limits assumed) above
T3 sequence (P54290 945-1091 partner limits assumed): as the sequence (P54290 945-1091 partner limits assumed) above
T3 sequence (P54283 whole entry partner): as the sequence (P54283 whole entry partner) above

With `COc1ccc(CN2CCN(C(c3ccc(F)cc3)c3ccc(F)cc3)CC2)c(OC)c1OC` [39-36-1 Lomerizine, Lomerizine, reference compound], the IC50 in assay [1] (setting [5]) is 0.09 µM; in assay [1] (setting [6]) it was 0.39 µM; in assay [1] (setting [7]), 0.09 µM; in assay [2] (setting [8]) it was 0.07 µM; in assay [2] (setting [9]), 0.46 µM; in assay [2] (setting [10]) it was 0.07 µM. The IC50 in assay [3] (setting [11]) was 0.15 µM; in assay [3] (setting [12]), 0.29 µM; in assay [3] (setting [13]) it was 0.15 µM. In addition, the “% Block (100 nM) 0.03 Hz” value in assay [1] (α1B (N-type)) is 24%; in assay [2] (α1A (P/Q-type), 0.03 Hz), 25%; in assay [3] (α1C (L-type), 0.03 Hz) it was 26%. Moreover, the “% Block (100 nM) 0.2 Hz” value is listed as 54% in assay [1] (α1B (N-type)); 57% in assay [2] (α1A (P/Q-type), 0.2 Hz); 44% in assay [3] (α1C (L-type), 0.2 Hz).

Consider `COc1cc(C(=O)N2CCN(C(c3ccc(F)cc3)c3ccc(F)cc3)CC2)cc(OC)c1OC` [39-36-2], for which the IC50 in assay [1] (setting [5]) was 0.07 µM; in assay [1] (setting [6]), 0.32 µM; in assay [1] (setting [7]) it was 0.07 µM; in assay [2] (setting [8]) it was 0.11 µM; in assay [2] (setting [9]) it was 0.31 µM; in assay [2] (setting [10]), 0.11 µM. In addition, the IC50 is 0.4 µM in assay [3] (setting [11]), 2.1 µM in assay [3] (setting [12]) and 0.4 µM in assay [3] (setting [13]). Further, the “% Block (100 nM) 0.03 Hz” value in assay [1] (α1B (N-type)) is listed as 29%; in assay [2] (α1A (P/Q-type), 0.03 Hz), 35%; in assay [3] (α1C (L-type), 0.03 Hz), 11%. Further, the “% Block (100 nM) 0.2 Hz” value in assay [1] (α1B (N-type)) turned out to be 60%; in assay [2] (α1A (P/Q-type), 0.2 Hz), 52%; in assay [3] (α1C (L-type), 0.2 Hz), 22%.

As for `COc1ccc(/C=C/C(=O)N2CCN(C(=O)CCCCC(c3ccccc3)c3ccccc3)CC2)cc1` [SH-123A], the IC50 was 0.09 µM in assay [1] (setting [5]); 0.47 µM in assay [1] (setting [6]); 0.09 µM in assay [1] (setting [7]); 0.07 µM in assay [2] (setting [8]); 0.26 µM in assay [2] (setting [9]); 0.07 µM in assay [2] (setting [10]). For the same compound, the IC50 in assay [3] (setting [11]) was 0.25 µM; in assay [3] (setting [12]), 0.62 µM; in assay [3] (setting [13]), 0.25 µM. The “% Block (100 nM) 0.03 Hz” value is 19% in assay [1] (α1B (N-type)); 29% in assay [2] (α1A (P/Q-type), 0.03 Hz); 21% in assay [3] (α1C (L-type), 0.03 Hz). The “% Block (100 nM) 0.2 Hz” value in assay [1] (α1B (N-type)) worked out at 55%; in assay [2] (α1A (P/Q-type), 0.2 Hz), 61%; in assay [3] (α1C (L-type), 0.2 Hz), 37%.

Consider `O=C(/C=C/c1ccc2c(c1)OCO2)N1CCN(C(=O)CCCCC(c2ccccc2)c2ccccc2)CC1` [SH-123B], for which the IC50 is 0.13 µM in assay [1] (setting [5]); 1.27 µM in assay [1] (setting [6]); 0.13 µM in assay [1] (setting [7]); 0.13 µM in assay [2] (setting [8]); 0.55 µM in assay [2] (setting [9]); 0.13 µM in assay [2] (setting [10]). For the same compound, the IC50 in assay [3] (setting [11]) is 0.74 µM; in assay [3] (setting [12]), 2.06 µM; in assay [3] (setting [13]) it was 0.74 µM. Besides, the “% Block (100 nM) 0.03 Hz” value is given as 9% in assay [1] (α1B (N-type)); 16% in assay [2] (α1A (P/Q-type), 0.03 Hz); 8% in assay [3] (α1C (L-type), 0.03 Hz). Moreover, the “% Block (100 nM) 0.2 Hz” value in assay [1] (α1B (N-type)) is 45%; in assay [2] (α1A (P/Q-type), 0.2 Hz), 44%; in assay [3] (α1C (L-type), 0.2 Hz), 14%.

`Nc1ccc(/C=C/C(=O)N2CCN(C(=O)CCCCC(c3ccccc3)c3ccccc3)CC2)cc1` [SH-134]: the IC50 in assay [1] (setting [5]) was 0.15 µM; in assay [1] (setting [6]) it was 0.44 µM; in assay [1] (setting [7]), 0.15 µM; in assay [2] (setting [8]), 0.12 µM; in assay [2] (setting [9]), 0.45 µM; in assay [2] (setting [10]), 0.12 µM. For the same compound, the IC50 was 0.83 µM in assay [3] (setting [11]), 1.6 µM in assay [3] (setting [12]) and 0.83 µM in assay [3] (setting [13]). For the same compound, the “% Block (100 nM) 0.03 Hz” value is 20% in assay [1] (α1B (N-type)); 20% in assay [2] (α1A (P/Q-type), 0.03 Hz); 11% in assay [3] (α1C (L-type), 0.03 Hz). Further, the “% Block (100 nM) 0.2 Hz” value in assay [1] (α1B (N-type)) is given as 41%; in assay [2] (α1A (P/Q-type), 0.2 Hz), 45%; in assay [3] (α1C (L-type), 0.2 Hz) it was 21%.

As to `CC(=O)Nc1ccc(/C=C/C(=O)N2CCN(C(=O)CCCCC(c3ccccc3)c3ccccc3)CC2)cc1` [SH-136], the IC50 in assay [1] (setting [5]) was 0.14 µM; in assay [1] (setting [6]), 0.63 µM; in assay [1] (setting [7]), 0.14 µM; in assay [2] (setting [8]) it was 0.15 µM; in assay [2] (setting [9]) it was 0.52 µM; in assay [2] (setting [10]) it was 0.15 µM. The results for the IC50 in assay [3] (setting [11]), in assay [3] (setting [12]) and in assay [3] (setting [13]) were 1.4 µM, 2.8 µM and 1.4 µM, respectively. For the same compound, the “% Block (100 nM) 0.03 Hz” value in assay [1] (α1B (N-type)) was 14%; in assay [2] (α1A (P/Q-type), 0.03 Hz), 18%; in assay [3] (α1C (L-type), 0.03 Hz), 4%. Further, the “% Block (100 nM) 0.2 Hz” value in assay [1] (α1B (N-type)) is 44%; in assay [2] (α1A (P/Q-type), 0.2 Hz), 42%; in assay [3] (α1C (L-type), 0.2 Hz), 8%.

With `O=C(CCCCC(c1ccccc1)C1CCCCC1)N1CCN(CC=Cc2ccccc2)CC1` (stereo not shown) [Φ, Cy; CH(CH2)4CO; N; 1; CH═CHΦ], the IC50 in assay [4] amounted to 3900 nM.
